According to patent publication US7553864B2, “Compounds for the treatment of inflammatory disorders and microbial diseases” (Schering Corporation, priority 2005, dated 2009):

Test system: LpxC enzyme
Assay: LpxC enzyme assay (RapidFire high-throughput mass spectrometry)
Format: biochemical
Protocol: The standard LpxC assay consists of 0.2 nM LpxC enzyme, 1.0 μM UDP-3-O—(R-3-hydroxymyristoyl)-N-acetylglucosamine, and test compound, in assay buffer and 2% DMSO. Assay buffer is comprised of 25 mM HEPES, pH 7.3, 150 mM NaCl, 2.0 mM DTT, and 0.01% BSA. The enzyme reaction is carried out in a 96-well assay plate, in a final volume of 102 μL. Solutions of test compounds are prepared in 100% DMSO. Reaction additions, in order, are (1) 2.0 μL compound solution, (2) 80 μL of assay buffer, (3) 10 μL of 10 μM UDP-3-O—(R-3-hydroxymyristoyl)-N-acetylglucosamine (in assay buffer) and, (4) 10 μL of LpxC enzyme (20 nM in assay buffer) to initiate the reaction. In positive control reactions, addition (1) has 2.0 μL of 100% DMSO (without compound); these reactions are used as the total signal (TSB) value. Reactions are incubated at room temperature for 60 minutes when 10 μL of 1 N HCl is added to stop the reaction. The plate is shaken by hand for 10 seconds to ensure complete quenching. Assay plates are sealed with foil tape, and stored at −80° C. for 24-48 hr prior to analysis.
The concentrations of substrate and product in the reaction mixtures are determined with BioTrove's proprietary RapidFire™ high-throughput mass spectrometry (HTMS). Assay mixtures are partially purified with reverse phase chromatography, where they are washed with water containing 5 mM ammonium formate and eluted onto the mass spectrometer in 80% acetonitrile, 20% water, and 5 mM ammonium formate. The mass spectrometry peak areas of the substrate and product are measured to determine the concentration of these analytes. The assay signal is the percentage of substrate that is converted to product. Percent inhibition, % I, in test samples is determined from the following equation: […]

[1] = concentration 0.10 (unit not given)
[2] = concentration 0.20 (unit not given)
[3] = concentration 0.39 (unit not given)
[4] = concentration 0.78 (unit not given)
[5] = concentration 1.56 (unit not given)
[6] = concentration 3.13 (unit not given)
[7] = concentration 6.25 (unit not given)
[8] = concentration 12.50 (unit not given)
[9] = concentration 25 (unit not given)
[10] = concentration 50 (unit not given)

SMILES | LpxC enzyme assay rating (% inhibition at indicated concentrations) [1] | LpxC enzyme assay rating (% inhibition at indicated concentrations) [2] | LpxC enzyme assay rating (% inhibition at indicated concentrations) [3] | LpxC enzyme assay rating (% inhibition at indicated concentrations) [4] | LpxC enzyme assay rating (% inhibition at indicated concentrations) [5] | LpxC enzyme assay rating (% inhibition at indicated concentrations) [6] | LpxC enzyme assay rating (% inhibition at indicated concentrations) [7] | LpxC enzyme assay rating (% inhibition at indicated concentrations) [8] | LpxC enzyme assay rating (% inhibition at indicated concentrations) [9] | LpxC enzyme assay rating (% inhibition at indicated concentrations) [10]
CNC(=O)[C@H](O)[C@@H](O)C(=O)Nc1ccc(C#Cc2ccccc2)cc1 [Compound 25] | C (less than 10% inhibition) | C (less than 10% inhibition) | C (less than 10% inhibition) | C (less than 10% inhibition) | C (less than 10% inhibition) | C (less than 10% inhibition) | C (less than 10% inhibition) | B (10-30% inhibition) | C (less than 10% inhibition) | C (less than 10% inhibition)
CNC(=O)[C@H](O)[C@@H](O)C(=O)n1ccc2cc(C#Cc3ccccc3)ccc21 [Compound 26] | C (less than 10% inhibition) | C (less than 10% inhibition) | C (less than 10% inhibition) | C (less than 10% inhibition) | C (less than 10% inhibition) | C (less than 10% inhibition) | C (less than 10% inhibition) | B (10-30% inhibition) | C (less than 10% inhibition) | B (10-30% inhibition)
CNC(=O)[C@H](O)[C@@H](O)C(=O)Nc1ccc(-c2ccccc2)cc1 [Compound 27] | C (less than 10% inhibition) | C (less than 10% inhibition) | C (less than 10% inhibition) | C (less than 10% inhibition) | C (less than 10% inhibition) | B (10-30% inhibition) | B (10-30% inhibition) | B (10-30% inhibition) | B (10-30% inhibition) | B (10-30% inhibition)
CNC(=O)[C@H](O)[C@@H](O)C(=O)Nc1ccc(-c2ccc(C(F)(F)F)cc2)cc1 [Compound 28] | C (less than 10% inhibition) | C (less than 10% inhibition) | C (less than 10% inhibition) | C (less than 10% inhibition) | C (less than 10% inhibition) | C (less than 10% inhibition) | C (less than 10% inhibition) | B (10-30% inhibition) | C (less than 10% inhibition) | C (less than 10% inhibition)
CNC(=O)[C@H](O)[C@@H](O)C(=O)N1CCN(c2cccc3ccccc23)CC1 [Compound 29] | C (less than 10% inhibition) | C (less than 10% inhibition) | C (less than 10% inhibition) | C (less than 10% inhibition) | B (10-30% inhibition) | B (10-30% inhibition) | B (10-30% inhibition) | B (10-30% inhibition) | B (10-30% inhibition) | B (10-30% inhibition)
CNC(=O)[C@H](O)[C@@H](O)C(=O)N1CCN(c2ccc(-c3ccccc3)cc2)CC1 [Compound 30] | C (less than 10% inhibition) | B (10-30% inhibition) | B (10-30% inhibition) | C (less than 10% inhibition) | C (less than 10% inhibition) | B (10-30% inhibition) | B (10-30% inhibition) | B (10-30% inhibition) | B (10-30% inhibition) | A (greater than 30% inhibition)
CNC(=O)[C@H](O)[C@@H](O)C(=O)N1CCN(c2cccc(-c3ccccc3)c2)CC1 [Compound 31] | C (less than 10% inhibition) | B (10-30% inhibition) | C (less than 10% inhibition) | B (10-30% inhibition) | B (10-30% inhibition) | B (10-30% inhibition) | C (less than 10% inhibition) | B (10-30% inhibition) | B (10-30% inhibition) | B (10-30% inhibition)
CCCCc1ccc(NC(=O)[C@H](O)[C@@H](O)C(=O)NC)cc1 [Compound 32] | B (10-30% inhibition) | B (10-30% inhibition) | B (10-30% inhibition) | B (10-30% inhibition) | C (less than 10% inhibition) | B (10-30% inhibition) | C (less than 10% inhibition) | B (10-30% inhibition) | B (10-30% inhibition) | B (10-30% inhibition)
CCCc1ccc(NC(=O)[C@H](O)[C@@H](O)C(=O)NC)cc1 [Compound 33] | C (less than 10% inhibition) | C (less than 10% inhibition) | C (less than 10% inhibition) | C (less than 10% inhibition) | B (10-30% inhibition) | B (10-30% inhibition) | B (10-30% inhibition) | C (less than 10% inhibition) | C (less than 10% inhibition) | C (less than 10% inhibition)
CCC(C)c1ccc(NC(=O)[C@H](O)[C@@H](O)C(=O)NC)cc1 (stereo partly shown) [Compound 34] | C (less than 10% inhibition) | B (10-30% inhibition) | C (less than 10% inhibition) | B (10-30% inhibition) | B (10-30% inhibition) | C (less than 10% inhibition) | B (10-30% inhibition) | C (less than 10% inhibition) | B (10-30% inhibition) | B (10-30% inhibition)
